From patent publication US20250375468A1, “NOVEL RAS INHIBITORS” (KHR Biotec GmbH, priority 2022, published 2025)

Experiments:
Assay in all cases: NanoBit assay for RAS activation (RAS-LgBiT / CRAF RBD-SmBiT)
Type in all cases: cell-based
HRAS G12V = biological target: T1, HRAS G12V (Homo sapiens, UniProt P01112, G12V); conditions: HRAS G12V with CRAF RBD, 2 h incubation with inhibitor, serum free DMEM
T1 construct: K, N and HRAS G12V (full length) was cloned with Xho I and Bgl Il to LgBit; expressed in transfected cells
Protocol: (§1) FIGS. 1a) and 1b): NanoBit assay for RAS activation (KRAS G12V, NRAS G12V, HRAS G12V)
(§2) N-terminal LgBiT and C-terminal SmBIT construct was purchased from Promega and K, N and HRAS G12V (full length) was cloned with Xho I and Bgl Il to LgBit and CRAF Ras binding domain (1-149) was cloned with EcoRI and Bgl Il to SmBit. For transfections, 1 μg or 2 μg of (12 well/6 well) plasmids were transfected into cells with 0.5 mM of PEI reagent in 100 μl or 200 μl PBS. One day after transfection, cells were harvested and seeded into 96 well white plates, half area (Greiner). After an additional day the medium was changed to serum free DMEM and the cells were incubated for 2 h with inhibitors. NanoGlo assay was performed according to the manufacturer's instructions. The luminescence was measured using Tecan infinite (Tecan).

KRAS G12V = biological target: T2, KRAS G12V (Homo sapiens, UniProt P01116, G12V); conditions: KRAS G12V with CRAF RBD, 2 h incubation with inhibitor, serum free DMEM
T2 construct: K, N and HRAS G12V (full length) was cloned with Xho I and Bgl Il to LgBit; expressed in transfected cells
Protocol: as §1, §2

NRAS G12V = biological target: T3, NRAS G12V (Homo sapiens, UniProt P01111, G12V); conditions: NRAS G12V with CRAF RBD, 2 h incubation with inhibitor, serum free DMEM
T3 construct: K, N and HRAS G12V (full length) was cloned with Xho I and Bgl Il to LgBit; expressed in transfected cells
T3 sequence (P01111 whole entry G12V): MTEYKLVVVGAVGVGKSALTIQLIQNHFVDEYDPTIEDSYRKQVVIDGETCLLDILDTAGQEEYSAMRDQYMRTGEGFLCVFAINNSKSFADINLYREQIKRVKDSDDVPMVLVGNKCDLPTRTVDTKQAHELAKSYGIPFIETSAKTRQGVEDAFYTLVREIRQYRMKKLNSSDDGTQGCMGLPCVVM
Protocol: as §1, §2

CC[PH](CC)(CC)[Au][S][C@@H]1O[C@H](COC(C)=O)[C@@H](OC(C)=O)[C@H](OC(C)=O)[C@H]1OC(C)=O [Auranofin, (2,3,4,6-Tetra-O-acetyl-1-thio-β-D-glucopyranosato)(triethylphosphan)gold]
inhibits: RAS activation (NanoBit luminescence), H-RAS (HRAS G12V) | RAS activation (NanoBit luminescence), K-RAS (KRAS G12V) | RAS activation (NanoBit luminescence), N-RAS (NRAS G12V)
